We go through 3 molecules from paper PMC3093627 (Research in Pharmaceutical Sciences, 2010).

For data set [1], the system named is morphine brain distribution. To be noted: rats; cited from earlier work.
For data set [2], the system named is MDCK II cells. Particulars: probenecid 10 μM, d-glucose 5 μM, digoxin 5 μM, M6G 100 μg/ml, cyclosporin 10 μM.
Procedure: Madin-Darby Canine Kidney epithelial cell lines (MDCK-II, passages 3-7), and MDCK I-MDR (MDCK-PGP or MDCK WT, passages)([6]–[10]) were purchased from Borst- Amsterdam. MDCK-PGP is a MDCK-II recombinant clone containing the human MDR-I PGP gene.
When cell growth and cell number were sufficient, the cells were transferred into the transwells. The number of cells in each well was calculated using Eq. 1
In 48/case plates, with area of 0.3318 Cm^2for each insert, the required cells per insert were 13,272 cells. This number of cells was dispensed in 0.25 ml media for each insert and the cells suspension was poured into apical chambers of the inserts. Each treatment group comprised 4 replicates. One ml of cell free media was added to basal chambers. […]
After completing the incubation period, TEER of each Transwell inserts was measured using an EVOM epithelial voltammeter (WIP, Sarasota, FL) and the Transwell inserts were distributed evenly between treatment groups, based on the TEER measurement. […] The corrected cumulative concentrations of drug were determined based on the amount of removed and added buffer in each series of wells at each interval and the corrected concentrations were used for calculating the apparent permeability coefficient (ρ) according to the Eq. 2: […]

Take `COc1cc2c(cc1OC)CN(CCc1ccc(NC(=O)c3cccc4c(=O)c5cccc(OC)c5[nH]c34)cc1)CC2` [GF120918]: the “Reduction of morphine brain distribution” value in data set [1] is on record as 42%.

In the case of `CN1CC[C@]23c4c5ccc(O)c4O[C@H]2[C@@H](O[C@@H]2O[C@H](C(=O)O)[C@@H](O)[C@H](O)[C@H]2O)C=C[C@H]3[C@H]1C5` [M6G, morphine 6 glucoronide], the “Effect on morphine permeability via MDCK II cells” value in data set [2] was “no significant effects”.

Take `C[C@H]1O[C@@H](O[C@H]2[C@@H](O)C[C@H](O[C@H]3[C@@H](O)C[C@H](O[C@H]4CC[C@@]5(C)[C@H](CC[C@@H]6[C@@H]5C[C@@H](O)[C@]5(C)[C@@H](C7=CC(=O)OC7)CC[C@]65O)C4)O[C@@H]3C)O[C@@H]2C)C[C@H](O)[C@@H]1O` [digoxin]: the “Effect on morphine permeability via MDCK II cells” value in data set [2] is “significant fall”.
